Results published in patent publication US9814787B2, “Luciferin amides” (University of Massachusetts, priority 2013, dated 2017).

Assays:
FAAH [1] = target: T1, FAAH (Homo sapiens, UniProt O00519); test: In vitro FAAH assay: luciferin amide treated with recombinant FAAH, then R218K luciferase, bioluminescence; type: biochemical
T1 construct: purchased Cayman Chemical
T1 sequence (O00519 1-579): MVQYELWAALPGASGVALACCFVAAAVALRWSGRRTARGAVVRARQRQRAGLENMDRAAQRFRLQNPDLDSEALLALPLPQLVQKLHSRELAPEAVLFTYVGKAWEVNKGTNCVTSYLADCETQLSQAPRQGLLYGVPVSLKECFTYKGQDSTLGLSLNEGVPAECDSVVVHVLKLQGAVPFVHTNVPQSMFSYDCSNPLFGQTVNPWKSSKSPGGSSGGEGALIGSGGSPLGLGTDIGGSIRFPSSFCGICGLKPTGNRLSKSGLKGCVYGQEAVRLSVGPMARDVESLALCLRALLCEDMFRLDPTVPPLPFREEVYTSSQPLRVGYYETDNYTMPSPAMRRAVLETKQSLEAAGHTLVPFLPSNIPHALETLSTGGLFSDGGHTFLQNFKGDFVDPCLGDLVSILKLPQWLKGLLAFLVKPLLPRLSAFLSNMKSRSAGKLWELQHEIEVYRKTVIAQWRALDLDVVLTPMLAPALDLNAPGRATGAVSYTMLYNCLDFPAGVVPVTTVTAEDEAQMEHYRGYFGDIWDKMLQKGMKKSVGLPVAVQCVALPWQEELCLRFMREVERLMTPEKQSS
Protocol: Recombinant FAAH, FAAH assay buffer, and FAAH inhibitors URB-597, PF-750, and PF-3845 were purchased from Cayman Chemical.
Bioluminescence assays were performed in either a Turner Veritas luminometer or a Xenogen IVIS-100 imaging system. For Veritas experiments, white 96-well plates were used (Costar 3912). For IVIS experiments, black 96-well plates were used (Costar 3915).
Luciferin amides (50 μM) were treated with FAAH and FAAH buffer (Cayman Chemical) in the presence or absence of 50 μM FAAH inhibitor URB-597 or 50 μM luciferase inhibitor 2-(4′-methoxyphenyl)benzothiazole. After 10 minutes at room temperature, R218K mutant firefly luciferase was added at a concentration of 3 μg/mL and bioluminescence was detected on a Turner Veritas luminometer.
Four luciferin amides (50 μM), i.e., Compounds 1, 9, 10, and 25, were treated with a buffer alone, a buffer containing FAAH, a buffer containing FAAH+50 μM URB-597 (i.e., a FAAH inhibitor), or a buffer containing FAAH+50 μM luciferase inhibitor 2-(4′-methoxyphenyl)benzothiazole. After 10 minutes at room temperature, R218K luciferase was added at a concentration of 3 μg/mL and bioluminescence was detected on a Turner Veritas.
(§1) Three luciferin amides (50 μM), i.e., Compounds 2, 9, and 25, were treated with a buffer alone, a buffer containing FAAH, a buffer containing FAAH 1:10 (i.e., a ten-fold dilution of FAAH), a buffer containing pig liver esterase (PLE), or a buffer containing PLE 1:10 (i.e., a ten-fold dilution of PLE). After one hour at room temperature, R218K luciferase was added at a concentration of 3 μg/mL and bioluminescence was detected on a Turner Veritas.

[2] = test system: FVB mice expressing luciferase in brain tissue; test: In vivo bioluminescence imaging in brains of FVB mice injected with AAV9-luc+ in the striatum
Protocol: (§2) FVB mice were injected with AAV9-luc+ in the brain striatum. Bioluminescence assays were performed approximately nine months after AAV injection. Each luciferin amide was diluted into PBS to the indicated concentration from a 50 mM DMSO stock solution and filtered (0.22 μm) prior to intraperitoneally injection (0.1 mL per mouse). Mice were anesthetized with isoflurane (2% in 1 L/min oxygen) and images acquired on a Xenogen IVIS 100 imaging system and analyzed with Living Image software.
Certain luciferin amides described herein were tested to determine whether they would image well in live mice. For these studies, FVB mice were injected with adeno-associated virus 9 (AAV9)-luciferase constructs into the brain striatum.
Bioluminescence imaging (BLI) in the brain is more challenging than imaging in the rest of the organism, in part because a luciferase substrate (i.e., a luciferin) must cross the blood-brain barrier. Therefore, the ability of a synthetic luciferin (i.e., Compound 9's corresponding luciferin (CycLuc1)) to allow bioluminescence imaging in these mice, as compared to the native firefly luciferase substrate (i.e., D-luciferin) was first tested. Specifically, each substrate was injected intraperitoneally (IP) in PBS at a volume of 0.1 mL, D-luciferin being at a concentration of 100 mM and CycLuc1 being at a concentration of 5 mM. […] CycLuc1 was then injected at a 320-fold lower dose (0.06 mL of 0.5 mM) than D-luciferin.
Specifically, Compound 9 (i.e., CycLuc1 amide) was injected at 0.5 mM in 0.5% DMSO/PBS (0.06 mL).
In this figure, mice in the top row were treated with luciferin amides in the amounts indicated in the figure, and the mice in the bottom row were the same mice that were imaged one day later using a standard dose of D-luciferin.

pig liver esterase (PLE) = test: Treatment of luciferin amides with pig liver esterase, then R218K luciferase, bioluminescence; type: biochemical; settings: 50 μM luciferin amide, PLE and PLE 1:10, one hour at room temperature
Protocol: as §1

FAAH [3] = target: T2, FAAH (Mus musculus, UniProt O08914); test: In vivo FAAH inhibition assay with PF-3845; parameters: species or system mice; settings: for total photon flux, average: 0.1 mM (0.1 mL) IP; for change of light output by FAAH inhibitor PF-3845 (group 1 vs group 2): PF-3845 1 mg/mL (0.1 mL) IP 30 minutes before substrate
T2 construct: metabolized into CycLuc1 by endogenous FAAH activity; from tissue; host or cells: brain (striatum) of live FVB mice expressing AAV9-delivered luciferase
T2 sequence (O08914 1-579): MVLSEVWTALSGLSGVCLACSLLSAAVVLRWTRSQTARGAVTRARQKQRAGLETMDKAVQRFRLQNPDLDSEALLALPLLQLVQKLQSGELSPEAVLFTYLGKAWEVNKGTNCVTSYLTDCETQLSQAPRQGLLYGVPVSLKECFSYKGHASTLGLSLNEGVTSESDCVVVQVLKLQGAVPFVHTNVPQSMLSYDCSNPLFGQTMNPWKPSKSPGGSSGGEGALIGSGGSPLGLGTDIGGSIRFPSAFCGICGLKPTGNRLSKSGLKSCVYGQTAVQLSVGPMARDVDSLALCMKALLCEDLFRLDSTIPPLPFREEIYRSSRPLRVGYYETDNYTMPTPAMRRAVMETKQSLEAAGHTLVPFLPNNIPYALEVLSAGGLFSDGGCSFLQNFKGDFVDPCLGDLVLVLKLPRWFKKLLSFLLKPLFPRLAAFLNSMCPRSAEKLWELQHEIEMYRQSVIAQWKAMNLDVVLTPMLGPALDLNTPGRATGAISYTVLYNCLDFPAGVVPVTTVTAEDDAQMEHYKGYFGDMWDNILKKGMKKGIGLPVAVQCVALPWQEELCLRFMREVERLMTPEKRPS
Protocol: as §2
Mice were injected intraperitoneally with 1 mg/mL of a specific FAAH inhibitor PF-3845 dissolved in 18:1:1 PBS:ethanol:emulphor (0.1 mL), or with an equal volume of 18:1:1 PBS:ethanol:emulphor control vehicle. Thirty minutes after injection, the mice were imaged as described above.
FAAH is highly expressed in most tissues, particularly in the brain. To determine whether the luciferin amides are cleaved exclusively by FAAH in the brain tissue, eight FVB mice expressing AAV9-luciferase in the striatum were divided into two groups: (1) four mice were injected IP with 1 mg/mL of a specific FAAH inhibitor PF-3845 dissolved in 18:1:1 PBS:ethanol:emulphor (0.1 mL), and (2) four mice were treated with an equal volume of 18:1:1 PBS:ethanol:emulphor control vehicle without PF-3845. After 30 minutes, one mouse from each group was IP injected with 5 mM CycLuc1 (i.e., Compound 9's corresponding luciferin) in PBS (0.1 mL), and three were injected with 0.1 mM Compound 5 in 0.2% DMSO/PBS (0.1 mL). The mice were imaged 10 minutes after substrate injection. Mice in the right panel were group (1) (i.e., treated with a FAAH inhibitor) and mice in the left panel were from group (2) (i.e., without being treated with a FAAH inhibitor).

[4] = test system: live CHO cells expressing R218K luciferase; test: Intact cell FAAH assay, light emission from live CHO cells expressing R218K luciferase; type: cell-based, Chinese hamster; settings: 50 μM FAAH inhibitor
Protocol: Chinese hamster ovary-K1 (CHO-K1) cells were grown in a CO2 incubator at 37° C. with 5% CO2 and were cultured in F-12K Nutrient Mixture (GIBCO) supplemented with 10% fetal bovine serum and 100 U/mL penicillin/streptomycin.
Wild-type and R218K mutant luciferases were cloned into the BamHI-NotI site of pCDNA 3.1 and transiently transfected into CHO-K1 cells with Lipofectamine 2000 in 96-well tissue culture-treated plates for intact cell assays, or 6-well plates for lysed cell assays. For intact cells, 0.075 μg plasmid/well was transfected; for lysed cells, 2.25 μg plasmid/well was transfected.
[…] The cells were incubated for one hour in the CO2 incubator at 37° C. Cells were then washed with Hank's balanced salt solution (HBSS) and overlaid with 60 μL a luciferin amide substrate in HBSS. Imaging assays were performed 3 minutes after substrate addition, with final substrate concentrations ranging from 0.122 to 250 μM.
Seven luciferin amides, i.e., Compounds 1-4, 9, 10, and 25, were tested in live CHO cells expressing R218K luciferase at various concentrations (i.e., 0.12 μM, 0.25 μM, 0.5 μM, 1 μM, 2 μM, 4 μM, 8 μM, 16 μM, 31 μM, 62 μM, 125 μM, and 250 μM).
Compound 25 and Compound 10, as well as their corresponding luciferins (i.e., D-Luciferin and CycLuc2, respectively), were tested in live CHO cells expressing wild-type (WT) luciferase or R218K (RK) luciferase at various concentrations (i.e., 0.125 μM, 0.25 μM, 0.5 μM, 1 μM, 2 μM, 4 μM, 8 μM, 16 μM, 31 μM, 62 μM, 125 μM, and 250 μM).

In the case of `CNc1ccc2nc(C3=N[C@@H](C(N)=O)CS3)sc2c1` [Compound 1, (S)-4,5-dihydro-2-(6-(methylamino)benzo[d]-thiazol-2-yl)thiazole-4-carboxamide], the “increase in bioluminescence signal on addition of FAAH versus buffer” value (FAAH [1]; 50 μM luciferin amide, 10 minutes at room temperature, R218K luciferase 3 μg/mL) is reported as 167 fold and the “light emission in brains of live mice (qualitative)” value ([2]; mouse, in vivo) is reported as “relatively strong light emission”.
`CN(C)c1ccc2nc(C3=N[C@@H](C(N)=O)CS3)sc2c1` [Compound 2, (S)-2-(6-(dimethylamino)benzo[d]thiazol-2-yl)-4,5-dihydrothiazole-4-carboxamide] was tested, and the “effect of ten-fold dilution of FAAH on bioluminescent signal” value (FAAH [1]; 50 μM luciferin amide, FAAH vs FAAH 1:10, one hour at room temperature) was “corresponding reduction in the intensity of the bioluminescent signal” and the “bioluminescence signal after treatment with PLE” value (pig liver esterase (PLE)) was “failed to elicit a bioluminescence signal”.
In the case of `CC(C)Nc1ccc2nc(C3=N[C@@H](C(N)=O)CS3)sc2c1` [Compound 5, (S)-4,5-dihydro-2-(6-(isopropylamino)-benzo[d]thiazol-2-yl)thiazole-4-carboxamide], the “Photon flux after treatment with luciferin analogs” value ([2]; 4 μM) is reported as 2.97E+05 p/s, the “signal as share of the D-luciferin signal” value ([2]; 4 μM, 25,000-fold lower dose) is reported as about 30% and the “Photon flux after treatment with luciferin analogs” value ([2]; 20 μM) is reported as 1.95E+06 p/s. The “Photon flux after treatment with luciferin analogs” value ([2]; 100 μM) was 7.84E+06 p/s, the “Photon flux after treatment with luciferin analogs” value ([2]; 500 μM) was 1.19E+07 p/s and the “photon flux relative to standard 100 mM D-luciferin” value ([2]; IP, 20 μM, 5000-fold lower dose) was “higher photon flux than the standard 100 mM D-luciferin”. For the same compound, the “bioluminescence signal higher than standard D-luciferin imaging conditions” value ([2]; doses 200-fold and 1000-fold lower than standard D-luciferin dose) was 5 fold, the “total photon flux, average” value (FAAH [3]; group (1) treated with PF-3845) was 4.4×10^4 p/s and the “total photon flux, average” value (FAAH [3]; group (2) vehicle without PF-3845) was 1.3×10^7 p/s. For the same compound, the “change of light output by FAAH inhibitor PF-3845 (group 1 vs group 2)” value (FAAH [3]) was “reduced by nearly three orders of magnitude”.
With `O=C(O)[C@H]1CSC(c2nc3cc4c(cc3s2)NCC4)=N1` [CycLuc1, reference compound] the “persistence of signal relative to D-luciferin” value ([2]; 0.06 mL of 0.5 mM) was “persisted for a longer time”, the duration of signal ([2]; IP, 0.1 mL of 5 mM) was “over 2 hours” and the “time of peak signal” value ([2]; IP, 0.1 mL of 5 mM) was about 10 min. The “brain bioluminescence signal relative to D-luciferin (0.1 mL of 100 mM)” value ([2]; IP, 0.1 mL of 5 mM in PBS, 20-fold lower dose) was “an order of magnitude higher signal than D-luciferin”, the total photon flux (FAAH [3]; 5 mM in PBS (0.1 mL) IP, groups (1) PF-3845 and (2) vehicle, 10 minutes after substrate) was 9×10^6 p/s and the “change of light output by FAAH inhibitor PF-3845 (group 1 vs group 2)” value (FAAH [3]) was “unchanged”.
In the case of `CN1CCc2cc3nc(C4=N[C@@H](C(=O)O)CS4)sc3cc21` [CycLuc2, reference compound], the “effect of FAAH inhibitors URB-597, PF-750 and PF-3845 on light output” value [4] is reported as “no significant effect”.
For `NC(=O)c1cccc(-c2cccc(OC(=O)NC3CCCCC3)c2)c1` [URB-597, reference compound], the “inhibition of the FAAH-dependent bioluminescence signals of Compounds 1, 9, 10, 25 by FAAH inhibitor” value (FAAH [1]; 50 μM URB-597, 50 μM luciferin amide) was “more than 100 fold”.
